Assay results published in patent US4943566A, “Novel 17-aryl-steroids” (Roussel Uclafi, priority 1987, dated 1990).

System: mammary Tumoral cells MCF-7
Assay: Anti-proliferative activity against the increase of mammary tumoral cells MCF-7 (ADN by DABA fluorimetry)
Format: cell-based
Conditions: Homo sapiens, MCF7, 144 h; MCF-7 cells, SVF medium, 6 days, ADN content; read-out: CI50 in nM (concentration which inhibits by 50% the increase in the MCF 7 cells)
Description: The cell culture line MCF-7 was maintained in culture in SVF (1) medium at 37° C. in a humid atmosphere containing 5% CO2. The cells at subconfluence were collected by trypsination (0.05% trypsine, 0.02% EDTA) then rinsed by gentle centrifiguation. A sample of the cells in suspension was counted by the Malassez cell. To study the increase, the cells resuspended in SVF medium were innoculated at a rate of 30,000 cells per well in a multiwell plate (24 wells per 2.5 cm^2) 24 hours after the innoculation (Day 0), the test compound was added to the medium in an ethanolic solution (final ethanol concentration is 0.1%) a concentration of 10^-6 M. The control wells received the same concentration of ethanol. The mediums were totally renewed at 48 hours. At the end of the experiment (Day 6), the medium was aspirated and the cells were immediately fixed by 150 μl of methanol after a dose of ADN. The anti-proliferative activity of the products was determined by the capacity to inhibit ADN increase.
ADN is dosed by a fluorimetric method using DABA (3,5-diamino benzoic acid). 150 μl of DABA was added to each well and the plates were incubated for 45 minutes at 56° C. and then 1.5 ml of 1N hydrochloric acid was added. The fluoresence was measured with a fluorimeter (excitement length 400 nM-length of emission wave 500 nM). The amount of ADN per well was evaluated with respect to a standard scale obtained by treating under the same conditions an ADN standard of the calf thymus. The concentration in nM which inhibit by 50% the increase in the MCF 7 cells or CI50 was determined in the same manner with the results of the following Table.
The medium for culture of calf fetal serum (SVF) was prepared as follows: MEM medium (minimal essential medium) to which was added non-essential amino acids (GIBCO), peni-strepto (penicillin 100 U/ml, streptomycine 0.1 mg/ml), 0.1% fungizone, 50 ng/ml of insulin and a 10% final concentration of calf fetal serum free of endrogenic steroids.

| IC50 [nM] | SMILES |
| --- | --- |
| 500 | CN(C)c1ccc([C@H]2C[C@@]3(C)[C@@H](CC[C@@]3(O)c3ccc(N(C)C)cc3)[C@@H]3CCC4=CC(=O)CCC4=C32)cc1 [Example 2, 11β,17α-bis-(4-dimethylamino-phenyl)-Δ^4,9-estradiene-17β-ol-3-one] |
| 400 | COc1ccc([C@]2(O)CC[C@H]3[C@@H]4CCC5=CC(=O)CCC5=C4[C@@H](c4ccc(N(C)C)cc4)C[C@@]32C)cc1 [Example 4, 11β-(4-dimethylamino-phenyl)-17α-(4-methoxy-phenyl)-Δ^4,9-estradiene-17β-ol-3-one] |
